This passage reports TGI results from PubChem BioAssay (NCI).

What all share (test): NCI anticancer screen, dose series, 48 h
In assay [1] the test system is HOP-92 NSCLC.
In assay [2] the test system is MDA-MB-435.
In assay [3] the test system is SF-295 CNS.
Assay [4] has as its system OVCAR-3 ovarian.
The test system of assay [5] is U251 CNS.
The test system of assay [6] is IGROV1 ovarian.
Assay [7] concerns UACC-257 melanoma.
The subject of assay [8] is SF-539 CNS.
Assay [9] deals with ACHN renal.
For assay [10], the system named is MCF7 breast.
Assay [11] concerns 786-0 renal.
The test system of assay [12] is M14 melanoma.
For assay [13], the system named is BT-549 breast.
Assay [14] has as its system SK-MEL-5 melanoma.
Assay [15] relates to OVCAR-4 ovarian.
Assay [16] has as its system CCRF-CEM leukemia.
In assay [17] the test system is OVCAR-5 ovarian.
Assay [18] has as its system MDA-MB-231 breast.
The subject of assay [19] is NCI-H522 lung.
Assay [20] relates to K-562 leukemia.

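Following 48 hours of exposure in 96-well plates, responses at five concentrations were used to interpolate endpoints linearly. TGI marks complete inhibition of growth.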

Regarding `Cn1c(=O)c2c(nc3sc4ncccc4c(=O)n32)n(C)c1=O`, the TGI in assay [1], in [2], in assay [3], in assay [4], in [5] and in assay [6] was > 100 µM throughout. Besides, the TGI in assay [7], in assay [8], in assay [9], in [10], in assay [11] and in assay [12] was > 100 µM each time. The TGI in assay [13], in [14], in assay [15], in assay [16], in assay [17] and in assay [18] was > 100 µM in each case.

As for `CCOC(=O)c1nc2ccc(C(F)(F)F)cc2nc1Nc1ccc(OC)c(OC)c1`, the TGI in assay [1], in assay [2], in [3], in assay [4], in assay [19] and in assay [6] was > 100 µM in each case. For the same compound, the TGI in [7], in assay [8], in assay [9], in assay [10], in assay [20] and in assay [11] was > 100 µM each time. For the same compound, the TGI in [12], in [13], in assay [14], in assay [16], in assay [17] and in [18] was > 100 µM throughout.

In the case of `COc1ccc(N2C(=O)CC(c3c[nH]c4ccccc34)C2=O)cc1` (stereo unspecified), the TGI in [1], in [2], in [3], in assay [4], in assay [5] and in assay [6] was > 100 µM in each case. In addition, the TGI in assay [7], in [8], in assay [9], in assay [10], in [20] and in [11] was > 100 µM in each case. Moreover, the TGI in assay [12], in [13], in [14], in assay [16], in [17] and in assay [18] was > 100 µM throughout.

Turning to `CC(=O)OCC(OC(C)=O)C(OC(C)=O)C(OC(C)=O)C(/C=N\Nc1nc2ccccc2c(=O)[nH]1)OC(C)=O` (stereo unspecified), the TGI in assay [1], in assay [2], in [3], in assay [4], in assay [5] and in assay [19] was > 100 µM each time. Further, the TGI in assay [7], in assay [8], in assay [9], in assay [10], in [20] and in assay [11] was > 100 µM in each case. The TGI in assay [12], in assay [13], in assay [14], in [16], in assay [17] and in [18] was > 100 µM throughout.

In the case of `O=C(O)C1CCCN1Cc1ccc2c(c1)OCO2` (stereo unspecified), the TGI in assay [1], in assay [2], in assay [3], in [4], in assay [5] and in [19] was > 100 µM throughout. Besides, the TGI in assay [6], in assay [7], in assay [8], in [9], in assay [10] and in [20] was > 100 µM throughout. The TGI in assay [11], in assay [12], in assay [13], in assay [14], in assay [15] and in assay [17] was > 100 µM in each case. For the same compound, the TGI in assay [18] is > 100 µM.

Turning to `CC1OC2OC3C(OCC(O)C3O)OC(=O)[C@]34CCC(C)(C)CC3C3=CCC5[C@@]6(C)C[C@H](O)[C@H](OC7OC(CO)C(O)C(O)C7OC7OC(COC(=O)CC(C)(O)CC(=O)OC1C(O)C2O)C(O)C(O)C7O)[C@@](C)(CO)C6CC[C@@]5(C)[C@]3(C)CC4` (stereo partly specified), the TGI in [1] worked out at 2.94 µM; in assay [2] it was 2.88 µM; in assay [3] it was 3.1 µM; in [4], 3.15 µM; in assay [5], 2.91 µM; in assay [19], 3.08 µM. For the same compound, the TGI in assay [6] stood at 2.54 µM; in [7], 2.64 µM; in assay [8] it was 11.9 µM; in assay [9] it was 2.52 µM; in [10], 15.2 µM; in assay [11], 2.4 µM. The TGI in assay [12] turned out to be 2.76 µM; in [13] it was 2.82 µM; in assay [14], 2.34 µM; in assay [15], 3.15 µM; in assay [17], 2.85 µM; in [18] it was 3.11 µM.

Turning to `COc1ccc(N=C2C(=Nc3ccc(OC)cc3)N(c3ccccc3[N+](=O)[O-])C(=S)N2c2ccc(OC)cc2)cc1`, the TGI in [1], in [2], in assay [3], in assay [4], in assay [5] and in assay [19] was > 100 µM in each case. Moreover, the TGI in assay [6], in assay [8], in [9], in assay [10], in assay [20] and in assay [11] was > 100 µM throughout. Also, the TGI was > 100 µM in assay [12]; > 100 µM in assay [13]; > 100 µM in [14]; > 100 µM in [17]; 90.9 µM in [18].

Turning to `CC(=O)O[C@H]1C(=O)[C@@]2(C)[C@H]([C@H](OC(=O)c3ccncc3)[C@]3(O)C[C@H](OC(=O)[C@H](O)[C@@H](NC(=O)c4ccccc4)c4ccccc4)C(C)=C1C3(C)C)[C@]1(OC(C)=O)CO[C@@H]1C[C@@H]2O`, the TGI in [2] is 1.96 µM; in [3], > 25 µM; in assay [4], > 18.5 µM; in [5], > 23.3 µM; in assay [19], 10.2 µM; in assay [6], > 25 µM. In addition, the TGI in assay [7] was > 25 µM; in assay [8], 4.55 µM; in [9], > 25 µM; in assay [10] it was > 25 µM; in assay [20], 5.36 µM; in assay [11], > 25 µM. The TGI in assay [12] is > 25 µM; in assay [13], > 25 µM; in [14] it was > 22 µM; in assay [15], > 25 µM; in [16], 10.7 µM; in [17] it was > 25 µM. In addition, in assay [18], the TGI was > 25 µM.

Consider `N#C/C(N)=C(\C#N)N=CNc1ccccc1N`, for which the TGI in [2], in [3], in assay [4], in assay [5], in assay [19] and in assay [6] was > 100 µM in each case. Further, the TGI in assay [7], in [8], in assay [9], in [10], in assay [20] and in [11] was > 100 µM in each case. Besides, the TGI in [12], in assay [13], in assay [14], in assay [15], in assay [16] and in assay [17] was > 100 µM in each case. The TGI in assay [18] was > 100 µM.

Turning to `CCOC(=O)c1cc(C2(OC)CCN(Cc3ccccc3)C2=O)c(-c2cc(C)no2)[nH]1` (stereo unspecified), the TGI in [1], in assay [2], in assay [3], in [4], in assay [5] and in assay [19] was > 100 µM each time. Further, the TGI in assay [6], in [7], in [9], in assay [10], in assay [20] and in assay [11] was > 100 µM in each case. Besides, the TGI in [12], in assay [13], in assay [14], in [15], in assay [17] and in [18] was > 100 µM throughout.

On to `CC(C)(C)OC(=O)N1C(=O)OC[C@@H]2C=C[C@@H]21`, for which the TGI in [1], in assay [2], in assay [3], in assay [4], in assay [5] and in assay [19] was > 100 µM throughout. The TGI in assay [6], in assay [7], in [8], in [9], in assay [10] and in assay [11] was > 100 µM throughout. For the same compound, the TGI in assay [12], in assay [13], in assay [14], in assay [15], in assay [16] and in assay [17] was > 100 µM in each case. The TGI in [18] was > 100 µM.
